Read-outs that look alike come from different tables or passages of the source.
Columns and labels:
[1] = tested on: Ba/F3-FL-TYK2-P760L cells; test: Anti-proliferative assay in engineered Ba/F3 cells (Cell-Titer Glo, 72 h); assay type: cell-based; conditions: 72 h compound treatment, concentration that causes 50% growth inhibition, read-out: Baf3-FL-T2P760L
How it was run: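 IC50 from luminescent ATP viability after 72 h compound exposure (37 °C, 5% CO2), % inhibition normalised to DMSO-treated cells minus medium blank. IL-3-free Ba/F3-FL-TYK2-P760L (Tel-JAK fusion) cells in 10% FBS RPMI-1640 received 9 three-fold doses, top 20 µM, 0.1% DMSO.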

JAK1-JH2 domain = target: T1, JAK1-JH2 domain (Homo sapiens, UniProt P23458); test: Binding activity test for JH2 domain of JAK1 (Tb-antibody/tracer FRET); conditions: JH2 domain enzyme; 60 min at 25°C, then 4°C overnight; read-out: JAK1 JH2 Binding IC50
T1 construct: JAK1-JH2 domain or TYK2-JH2 domain enzyme in assay buffer
T1 sequence (P23458 583-855 limits assumed): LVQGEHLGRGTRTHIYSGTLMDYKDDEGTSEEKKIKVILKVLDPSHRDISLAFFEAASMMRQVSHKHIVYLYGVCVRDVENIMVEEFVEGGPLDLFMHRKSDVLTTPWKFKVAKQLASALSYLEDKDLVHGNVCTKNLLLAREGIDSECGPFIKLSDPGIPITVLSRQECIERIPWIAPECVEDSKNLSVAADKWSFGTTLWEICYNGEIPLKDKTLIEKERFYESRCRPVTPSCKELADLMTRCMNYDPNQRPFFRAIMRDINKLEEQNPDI
How it was run: (§1)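 IC50 values (nM) come from TR-FRET readings taken after a 25°C incubation followed by overnight at 4°C. Each well held JH2 domain protein, Tb-antibody, tracer and test compound titrated in 11 threefold steps, with DMSO high and low controls.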

TYK2-JH2 domain = target: T2, TYK2-JH2 domain (Homo sapiens, UniProt P29597); test: Binding activity test for JH2 domain of TYK2 (Tb-antibody/tracer FRET); conditions: for IC50: JH2 domain enzyme, 60 min at 25°C, then 4°C overnight, read-out: TYK2 JH2 Binding IC50; for JAK1/TYK2 selectivity: ratio of JAK1 JH2 to TYK2 JH2 binding IC50
T2 construct: JAK1-JH2 domain or TYK2-JH2 domain enzyme in assay buffer
T2 sequence (P29597 589-875 limits assumed): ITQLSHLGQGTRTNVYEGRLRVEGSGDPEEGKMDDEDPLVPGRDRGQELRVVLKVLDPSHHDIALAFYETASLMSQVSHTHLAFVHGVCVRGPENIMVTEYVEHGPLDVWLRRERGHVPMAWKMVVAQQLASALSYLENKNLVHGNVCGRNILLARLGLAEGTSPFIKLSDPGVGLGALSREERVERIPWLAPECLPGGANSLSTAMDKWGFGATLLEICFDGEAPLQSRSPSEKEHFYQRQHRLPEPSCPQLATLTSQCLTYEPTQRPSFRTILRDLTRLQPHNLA
How it was run: as §1

[2] = Microsomal metabolic stability assay; assay type: in vitro ADME; conditions: human, liver microsomes, pH 7.4, 0.5 mg/mL microsomal protein, 1 µM test article, 2 mM NADPH; for microsomal CLint at 1 µM: read-out: Human LM Clint; for half-life at 1 µM: read-out: Human LM T1/2
Description: Microsomes were pre-incubated with test compound or control compounds for 5 min at 37°C in 100 mM potassium phosphate buffer, pH 7.4, 1.0 mM EDTA. The reaction was initiated by addition of 15 µL of the NADPH regenerating system to 30 µL of each incubation mixture per time point. The final incubation condition was composed of 0.5 mg/mL microsomal protein, 1 µM test article/positive control, 2 mM NADPH. The 0-minute samples were prepared by addition of a 30 µL aliquot of each incubation mixture to 135 µL quench reagent to precipitate proteins. And then a 15 µL aliquot of the NADPH regenerating system was added. At 5, 15, 30 and 45 minutes, the reaction will be stopped by the addition of cold acetonitrile solution containing internal standard. The samples taken at all time points were centrifuged at 5000×g for 15 minutes. 50 µL of supernatant are taken into 96-well assay plates pre-added with 50 µL ultrapure water, and then analyzed by LC/MS/MS.
Concentrations of test articles, control compounds in the samples were determined by using LC/MS/MS method. Plotting of the chromatograms and peak area integrations are carried out by Analyst (AB Sciex).
In the determination of the in vitro elimination constant (ke) of the control compounds, the analyte/internal standard peak area ratios will be converted to percentage remaining (%Remaining) with the following equation: %Remaining = (Peak area ratio of analyte to IS at each time point)/(Peak area ratio of analyte to IS at t = 0) × 100% [formula]
The CLint of microsomes was calculated using the formula: CLint (mic)=0.693/T1/2 /mg microsome protein per mL. The slope was measured by the natural logarithm of the percentage of the residual compound and time, T1/2 was calculated according to the following formula. T = (0.693)/(−slope) [formula]

| IC50 [1] [nM] | SMILES | IC50 ([1]; Mus musculus, BaF3, 72 h) [nM] | IC50 (JAK1-JH2 domain) [nM] | IC50 (TYK2-JH2 domain) [nM] | JAK1/TYK2 selectivity (TYK2-JH2 domain) | microsomal CLint at 1 µM [2] [µL/min/mg] | half-life at 1 µM [2] [h] |
| --- | --- | --- | --- | --- | --- | --- | --- |
| – | CCn1nc(Nc2cc(NC(=O)C3CC3)ncc2C(=O)OC)c2c(OC)c(C(OC)C(F)(F)F)ccc21 (single isomer, unassigned) [Example 66B, Methyl (S*)-6-(cyclopropanecarboxamido)-4-((1-ethyl-4-methoxy-5-(2,2,2-trifluoro-1-methoxyethyl)-1H-indazol-3-yl)amino)nicotinate] | 12.5 | 90.7 | 0.13 | 719.87 | 14.2 | 1.62 |
| – | COC(=O)c1cnc(NC(=O)C2CC2)cc1Nc1nn(C)c2ccc(C(O)C(F)(F)F)c(OC)c12 (centres unmarked) [Example 48, Methyl 6-(cyclopropanecarboxamido)-4-((4-methoxy-1-methyl-5-(2,2,2-trifluoro-1-hydroxyethyl)-1H-indazol-3-yl)amino)nicotinate] | 2.19 | 33.6 | 0.166 | 202.69 | 19.3 | 1.2 |
| 9.21 | [2H]C([2H])([2H])OC(c1ccc2c(c(Nc3cc(NC(=O)C4CC4)ncc3C(=O)OC)nn2CCOC)c1OC)C(F)(F)F (centres unmarked) [Example 157, Methyl 6-(cyclopropanecarboxamido)-4-((4-methoxy-1-(2-methoxyethyl)-5-(2,2,2-trifluoro-1-(methoxy-d3)ethyl)-1H-indazol-3-yl)amino)nicotinate] | – | – | 0.15 | – | 25.8 | 0.897 |
| – | [2H]C([2H])(C)C(=O)c1cnc(NC(=O)C2CC2)cc1Nc1nn(C)c2ccc(C(O)C(F)(F)F)c(OC)c12 (centres unmarked) [Example 156, N-(4-((4-methoxy-1-methyl-5-(2,2,2-trifluoro-1-hydroxyethyl)-1H-indazol-3-yl)amino)-5-(propanoyl-2,2-d2)pyridin-2-yl)cyclopropanecarboxamide] | 1.76 | 14.2 | 0.163 | 86.87 | 26.2 | 0.881 |
| – | [2H]C([2H])([2H])O[C@@H](c1ccc2c(c(Nc3cc(NC(=O)C4CC4)ncc3C(=O)OC)nn2C([2H])([2H])[2H])c1OC)C(F)(F)F [Example 53B, Methyl (S)-6-(cyclopropanecarboxamido)-4-((4-methoxy-1-(methyl-d3)-5-(2,2,2-trifluoro-1-(methoxy-d3)ethyl)-1H-indazol-3-yl)amino)nicotinate] | 2.84 | – | 0.15 | – | 13.2 | 1.75 |
| – | COC(=O)c1cnc(NC(=O)C2CC2)cc1Nc1nsc2ccc(C(OC)C(F)(F)F)c(OC)c12 (centres unmarked) [Example 67, Methyl 6-(cyclopropanecarboxamido)-4-((4-methoxy-5-(2,2,2-trifluoro-1-methoxyethyl)benzo[d]isothiazol-3-yl)amino)nicotinate] | 2.5 | – | 0.15 | – | 18.3 | 1.26 |
| – | COc1c([C@H](OC)C(F)(F)F)ccc2c1c(Nc1cc(NC(=O)C3CC3)ncc1C(=O)O)nn2C [Example 77, (S)-6-(Cyclopropanecarboxamido)-4-((4-methoxy-1-methyl-5-(2,2,2-trifluoro-1-methoxyethyl)-1H-indazol-3-yl)amino)nicotinic acid] | > 1000 | 185 | 0.08 | 2307.96 | – | – |
| – | COC(=O)c1cnc(Nc2ccn(C)n2)cc1Nc1nn(C)c2ccc([C@H](OC)C(F)(F)F)c(OC)c12 [Example 180, Methyl (S)-4-((4-methoxy-1-methyl-5-(2,2,2-trifluoro-1-methoxyethyl)-1H-indazol-3-yl)amino)-6-((1-methyl-1H-pyrazol-3-yl)amino)nicotinate] | 14.3 | > 298 | 0.176 | >1696 | – | – |
| – | [2H]C([2H])([2H])NC(=O)c1cnc(NC(=O)C2CC2)cc1Nc1nn(C)c2ccc(C(OC)C(F)(F)F)c(OC)c12 (centres unmarked) [Example 46, 6-(Cyclopropanecarboxamido)-4-((4-methoxy-1-methyl-5-(2,2,2-trifluoro-1-methoxyethyl)-1H-indazol-3-yl)amino)-N-(methyl-d3)nicotinamide] | 0.618 | 6.81 | 0.113 | 60.31 | – | – |
| – | CCC(=O)c1cnc(NC(=O)C2CC2)cc1Nc1nn(C)c2ccc([C@H](O)C(F)(F)F)c(OC)c12 [Example 140, (S)-N-(4-((4-Methoxy-1-methyl-5-(2,2,2-trifluoro-1-hydroxyethyl)-1H-indazol-3-yl)amino)-5-propionylpyridin-2-yl)cyclopropanecarboxamide] | 0.463 | 4.36 | 0.061 | 71.43 | – | – |
| – | [2H]C([2H])([2H])O[C@H](c1ccc2c(c(Nc3cc(NC(=O)C4CC4)ncc3C(=O)OC)nn2C)c1OC)C(F)(F)F [Example 50A, Methyl (R)-6-(cyclopropanecarboxamido)-4-((4-methoxy-1-methyl-5-(2,2,2-trifluoro-1-(methoxy-d3)ethyl)-1H-indazol-3-yl)amino)nicotinate] | 131 | > 298 | 1.04 | >287.30 | – | – |
| – | CCOC(=O)c1cnc(NC(=O)C2CC2)nc1Nc1cccc(-c2ncn(C)n2)c1OC [Example 57, Ethyl 2-(cyclopropanecarboxamido)-4-((2-methoxy-3-(1-methyl-1H-1,2,4-triazol-3-yl)phenyl)amino)pyrimidine-5-carboxylate] | 719 | > 298 | 7.33 | >40.75 | – | – |
| – | [2H]C([2H])([2H])NC(=O)c1nnc(NC(=O)C2CC2)cc1Nc1nn(C)c2ccc([C@@H](OC)C(F)(F)F)c(OC)c12 [Example 51A, (R)-6-(cyclopropanecarboxamido)-4-((4-methoxy-1-methyl-5-(2,2,2-trifluoro-1-methoxyethyl)-1H-indazol-3-yl)amino)-N-(methyl-d3)pyridazine-3-carboxamide] | 12.3 | 6.29 | 0.154 | 40.84 | – | – |
| – | CCC(F)(F)c1cnc(NC(=O)C2CC2)cc1Nc1cccc(-c2cnn(C)n2)c1OC [Example 184, N-(5-(1,1-Difluoropropyl)-4-((2-methoxy-3-(2-methyl-2H-1,2,3-triazol-4-yl)phenyl)amino)pyridin-2-yl)cyclopropanecarboxamide] | 14.9 | 6.85 | 0.216 | 31.71 | – | – |
| – | [2H]C([2H])([2H])NC(=O)c1cnc(Nc2ccc(N3CCOCC3)cn2)cc1Nc1nn(C)c2ccc([C@H](OC)C(F)(F)F)c(OC)c12 [Example 173, (S)-4-((4-methoxy-1-methyl-5-(2,2,2-trifluoro-1-methoxyethyl)-1H-indazol-3-yl)amino)-N-(methyl-d3)-6-((5-morpholinopyridin-2-yl)amino)nicotinamide] | 0.401 | 2.39 | 0.161 | 14.83 | – | – |
| – | [2H]C([2H])([2H])O[C@@H](c1ccn2ncc(Nc3cc(NC(=O)C4CC4)ncc3C(=O)OC)c2c1OC)C(F)(F)F [Example 47, Methyl (S)-6-(cyclopropanecarboxamido)-4-((4-methoxy-5-(2,2,2-trifluoro-1-(methoxy-d3)ethyl)pyrazolo[1,5-a]pyridin-3-yl)amino)nicotinate] | 70.6 | 46.5 | 0.221 | 210.20 | – | – |
| – | COC(=O)c1cnc(NC(=O)C2CC2)nc1Nc1cccc(-c2ncn(C)n2)c1OC [Example 56, Methyl 2-(cyclopropanecarboxamido)-4-((2-methoxy-3-(1-methyl-1H-1,2,4-triazol-3-yl)phenyl)amino)pyrimidine-5-carboxylate] | 148 | 52.6 | 0.967 | 54.42 | – | – |

Source: patent EP4813463A2, “TYK2 INHIBITORS AND COMPOSITIONS AND METHODS THEREOF” (Lynk Pharmaceuticals Co. Ltd., priority 2023, dated 2024)
